Test results as given in patent publication US12121505B2, “Fap-activated therapeutic agents, and uses related thereto” (BACH BIOSCIENCES, LLC, priority 2014, dated 2024).
Read-outs that look alike come from different tables or passages of the source.

How the values were obtained:
DPPIV = DPPIV (Homo sapiens, UniProt P27487); assay: In vitro DPPIV inhibition assay; assay type: biochemical
DPP8 = DPP8 (Homo sapiens, UniProt Q6V1X1); assay: In vitro DPP8 inhibition assay; assay type: biochemical
DPP9 = DPP9 (Homo sapiens, UniProt Q86TI2); assay: In vitro DPP9 inhibition assay; assay type: biochemical
DPPII = DPPII (Homo sapiens, UniProt Q9UHL4); assay: In vitro DPPII inhibition assay; assay type: biochemical
FAP [1] = target: T1, FAP (Homo sapiens, UniProt Q12884); assay: In vitro FAP inhibition assay; assay type: biochemical
T1 sequence (Q12884 1-760): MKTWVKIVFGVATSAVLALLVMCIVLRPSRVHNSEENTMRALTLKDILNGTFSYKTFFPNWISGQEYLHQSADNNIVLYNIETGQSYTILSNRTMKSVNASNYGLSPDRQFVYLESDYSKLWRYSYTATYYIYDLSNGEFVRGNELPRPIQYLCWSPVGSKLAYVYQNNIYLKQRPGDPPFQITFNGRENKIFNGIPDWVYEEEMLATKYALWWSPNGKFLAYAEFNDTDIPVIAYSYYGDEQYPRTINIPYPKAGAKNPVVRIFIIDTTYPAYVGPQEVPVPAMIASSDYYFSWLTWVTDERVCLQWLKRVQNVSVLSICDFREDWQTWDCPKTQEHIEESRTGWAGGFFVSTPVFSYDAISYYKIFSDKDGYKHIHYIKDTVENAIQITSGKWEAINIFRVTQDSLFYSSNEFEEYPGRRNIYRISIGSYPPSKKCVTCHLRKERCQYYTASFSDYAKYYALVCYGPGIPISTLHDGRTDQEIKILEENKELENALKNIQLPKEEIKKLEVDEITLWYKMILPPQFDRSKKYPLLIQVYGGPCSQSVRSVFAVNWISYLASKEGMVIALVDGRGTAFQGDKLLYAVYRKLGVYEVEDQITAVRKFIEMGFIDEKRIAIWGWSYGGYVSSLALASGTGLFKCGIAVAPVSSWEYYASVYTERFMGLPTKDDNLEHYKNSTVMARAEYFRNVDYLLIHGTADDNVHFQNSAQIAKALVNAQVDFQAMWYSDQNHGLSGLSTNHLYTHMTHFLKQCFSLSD

PREP [2] = target: T2, PREP (Homo sapiens, UniProt P48147); assay: In vitro PREP inhibition assay; assay type: biochemical
T2 sequence (P48147 1-710): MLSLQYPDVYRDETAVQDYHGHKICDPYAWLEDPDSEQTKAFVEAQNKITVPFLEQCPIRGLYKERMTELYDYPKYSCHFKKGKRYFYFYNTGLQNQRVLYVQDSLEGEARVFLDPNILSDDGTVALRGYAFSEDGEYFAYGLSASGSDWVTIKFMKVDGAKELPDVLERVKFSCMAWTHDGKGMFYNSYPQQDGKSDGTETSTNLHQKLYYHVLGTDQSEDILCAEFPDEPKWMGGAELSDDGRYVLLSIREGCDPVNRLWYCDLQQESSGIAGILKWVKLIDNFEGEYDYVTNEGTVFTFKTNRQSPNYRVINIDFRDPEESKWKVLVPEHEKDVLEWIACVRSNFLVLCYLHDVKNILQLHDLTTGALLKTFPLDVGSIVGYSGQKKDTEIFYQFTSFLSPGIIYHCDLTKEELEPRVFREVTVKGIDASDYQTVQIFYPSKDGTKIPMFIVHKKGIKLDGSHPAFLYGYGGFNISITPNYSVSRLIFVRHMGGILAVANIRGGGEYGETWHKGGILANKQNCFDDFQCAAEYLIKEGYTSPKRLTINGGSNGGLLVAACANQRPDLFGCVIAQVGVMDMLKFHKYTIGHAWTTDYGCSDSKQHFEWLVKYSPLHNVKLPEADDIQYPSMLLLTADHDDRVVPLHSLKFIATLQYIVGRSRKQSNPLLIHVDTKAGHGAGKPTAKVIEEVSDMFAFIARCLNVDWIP

[3] = assay type: physicochemical
Procedure: • (i) LCMS of compound 3099DOX. • 0-3 min: 2% B; 3-20 min: 2-98% B; 20-25 min: 98% B. • Ran with 1.8 μm particle size column on the Old LCMS. • Calc.

FAP [4] = target: T1, FAP; assay type: biochemical; details: 1.34×10^−8 M FAP, 37° C.
Procedure: Michaelis-Menten enzyme kinetics for FAP were measured using a SpectraMax M2e microplate reader (Molecular Devices, Sunnyvale, CA, USA). The assays were performed in FAP buffer (50 mM […], 140 mM NaCl, pH 7.5) at 25° C., and the fluorescence continuously monitored at excitation and emission wavelengths of 380 and 460 nm, respectively. Kinetic constants (kcat and Km) were determined using GP-AMC (Bachem, Torrance, CA, USA), Ac-(D)-AP-AFC (MP Biomedicals, Solon, OH, USA) and test article concentrations equivalent to 0.1-5 times their respective Km values, and with 5-10 nM enzyme. All assays were performed in triplicate, and the results were calculated with a nonlinear regression analysis, relying on a Michaelis-Menten curve fit using GraphPad software.
(§1) 3099DOX at various concentrations ranging from 8.5×10^−6 M to 6.9×10^−4 M was incubated with 1.34×10^−8 M FAP or PREP at 37° C., and released doxorubicin measured.

PREP [5] = target: T2, PREP; assay type: biochemical; details: 1.34×10^−8 M PREP, 37° C.
Procedure: as §1

FAP [6] = target: T1, FAP; assay: Specificity of activation: 24 h digestion with FAP; assay type: biochemical; details: 100 μM prodrug, 37° C.
Procedure: (§2) Total doxorubicin was measured for each assay.

PREP [7] = target: T2, PREP; assay: Specificity of activation: 24 h digestion with PREP; assay type: biochemical; details: 100 μM prodrug, 37° C.
Procedure: as §2

[8] = 100 μM prodrug, 37° C., 12 h
FAP [9] = target: T1, FAP; assay: Rate of recombinant FAP activity on doxorubicin prodrugs; details: 37° C.
Procedure: 3099DOX, z-GP-DOX, and 3996DOX were incubated in the presence of recombinant FAP at 37° C. for 24 hours. Released doxorubicin was measured at 1, 4, 12, and 24 hours.

FAP [10] = target: T1, FAP; assay: FAP digest of 5057DOX (kinetics); assay type: biochemical
FAP [11] = target: T1, FAP; assay: Selectivity of FAP over PREP (5057DOX digest, LCMS); assay type: biochemical; details: FIG. 14; 240 nM 5057DOX, 12, 24 or 48 nM enzyme, 37° C.
Procedure: Recombinant enzyme (FAP or PREP) was combined, at reaction concentration of 12 nM, 24 nM, or 48 nM, with 240 nM 5057DOX in FAP buffer (50 mM Tris-HCl, pH 7.4, 140 mM NaCl) and incubated at 37° C. Reactions were stopped at 0, 10, 20, or 30 minutes by addition of equal volume of 10 μM Val-boroPro (FAP inhibitor). Doxorubicin was measured by liquid chromatography/mass spectroscopy (LCMS).

[12] = target: dipeptidyl peptidase IV (DPP IV) (Homo sapiens, UniProt P27487); assay: Specificity of activation: 24 h digestion with DPP IV; assay type: biochemical; details: 100 μM prodrug, 37° C.
Procedure: as §2

Chain of DPPIV (P27487 whole entry, species assumed): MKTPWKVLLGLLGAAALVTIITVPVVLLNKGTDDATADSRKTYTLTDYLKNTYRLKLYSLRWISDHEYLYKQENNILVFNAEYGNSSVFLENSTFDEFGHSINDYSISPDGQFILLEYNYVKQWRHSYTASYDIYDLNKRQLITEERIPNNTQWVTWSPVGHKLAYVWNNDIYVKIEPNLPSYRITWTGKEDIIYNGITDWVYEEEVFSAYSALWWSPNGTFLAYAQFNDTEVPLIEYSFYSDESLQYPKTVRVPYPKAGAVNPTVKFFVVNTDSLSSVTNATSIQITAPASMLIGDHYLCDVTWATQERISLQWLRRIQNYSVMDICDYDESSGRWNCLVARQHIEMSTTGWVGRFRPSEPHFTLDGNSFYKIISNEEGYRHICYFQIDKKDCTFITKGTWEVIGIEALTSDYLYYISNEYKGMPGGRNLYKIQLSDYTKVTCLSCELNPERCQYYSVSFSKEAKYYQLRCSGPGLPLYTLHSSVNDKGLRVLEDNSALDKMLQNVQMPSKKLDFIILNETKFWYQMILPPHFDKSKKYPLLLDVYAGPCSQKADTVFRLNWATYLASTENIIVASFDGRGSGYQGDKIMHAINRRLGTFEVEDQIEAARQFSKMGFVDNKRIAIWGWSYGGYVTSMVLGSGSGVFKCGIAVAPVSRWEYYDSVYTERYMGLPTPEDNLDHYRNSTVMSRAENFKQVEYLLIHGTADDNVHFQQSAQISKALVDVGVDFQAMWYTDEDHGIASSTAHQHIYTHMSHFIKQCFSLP
Chain of dipeptidyl peptidase IV (DPP IV) (P27487 whole entry, species assumed): as above
Chain of DPP8 (Q6V1X1 whole entry, species assumed): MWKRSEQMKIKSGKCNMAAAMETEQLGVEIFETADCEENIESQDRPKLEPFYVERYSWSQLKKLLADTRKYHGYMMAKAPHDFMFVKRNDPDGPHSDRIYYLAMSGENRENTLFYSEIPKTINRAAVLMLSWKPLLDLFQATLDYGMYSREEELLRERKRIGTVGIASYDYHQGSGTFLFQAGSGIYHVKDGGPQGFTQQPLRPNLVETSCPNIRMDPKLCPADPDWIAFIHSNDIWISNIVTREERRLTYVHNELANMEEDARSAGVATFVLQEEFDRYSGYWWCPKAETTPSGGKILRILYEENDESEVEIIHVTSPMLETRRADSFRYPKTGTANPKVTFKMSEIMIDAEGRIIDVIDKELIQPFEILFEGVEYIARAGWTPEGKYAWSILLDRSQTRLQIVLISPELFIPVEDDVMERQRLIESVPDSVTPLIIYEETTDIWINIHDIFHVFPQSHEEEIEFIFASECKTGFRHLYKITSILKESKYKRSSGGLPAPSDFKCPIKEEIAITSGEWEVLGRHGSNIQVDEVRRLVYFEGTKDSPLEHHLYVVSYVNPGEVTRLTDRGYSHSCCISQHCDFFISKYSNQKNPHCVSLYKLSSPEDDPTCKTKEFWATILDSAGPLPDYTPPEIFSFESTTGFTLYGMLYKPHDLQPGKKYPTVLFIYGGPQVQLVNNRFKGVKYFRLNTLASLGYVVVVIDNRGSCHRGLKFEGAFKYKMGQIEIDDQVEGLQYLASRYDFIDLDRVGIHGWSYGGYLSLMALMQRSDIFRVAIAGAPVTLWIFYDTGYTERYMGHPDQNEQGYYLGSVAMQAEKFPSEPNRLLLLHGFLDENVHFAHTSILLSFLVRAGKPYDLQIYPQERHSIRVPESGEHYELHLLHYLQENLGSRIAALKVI
Chain of DPP9 (Q86TI2 whole entry, species assumed): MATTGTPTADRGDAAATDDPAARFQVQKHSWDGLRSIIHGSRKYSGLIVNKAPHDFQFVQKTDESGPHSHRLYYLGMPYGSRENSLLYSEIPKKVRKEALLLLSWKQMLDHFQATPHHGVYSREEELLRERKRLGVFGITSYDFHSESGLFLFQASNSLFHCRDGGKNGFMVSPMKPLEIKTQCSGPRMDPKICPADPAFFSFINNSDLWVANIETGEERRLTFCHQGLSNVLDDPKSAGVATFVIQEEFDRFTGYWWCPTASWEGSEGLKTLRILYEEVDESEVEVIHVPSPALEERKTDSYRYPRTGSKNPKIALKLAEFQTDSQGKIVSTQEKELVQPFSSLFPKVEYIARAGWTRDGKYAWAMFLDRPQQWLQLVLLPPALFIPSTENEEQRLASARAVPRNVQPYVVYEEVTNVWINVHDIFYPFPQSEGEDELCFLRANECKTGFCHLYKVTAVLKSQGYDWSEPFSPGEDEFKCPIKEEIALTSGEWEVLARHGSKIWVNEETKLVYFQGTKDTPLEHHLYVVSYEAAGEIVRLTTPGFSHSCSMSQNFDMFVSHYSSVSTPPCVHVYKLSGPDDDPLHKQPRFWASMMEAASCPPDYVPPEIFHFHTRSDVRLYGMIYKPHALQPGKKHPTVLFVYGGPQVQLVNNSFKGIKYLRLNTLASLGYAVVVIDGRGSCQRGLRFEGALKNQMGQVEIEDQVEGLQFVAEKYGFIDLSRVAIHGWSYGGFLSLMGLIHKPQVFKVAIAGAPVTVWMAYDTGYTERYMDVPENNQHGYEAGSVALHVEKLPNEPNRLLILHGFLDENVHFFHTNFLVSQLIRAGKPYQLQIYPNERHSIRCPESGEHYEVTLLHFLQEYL

CC(C)[C@H](NC(=O)OCc1ccc(NC(=O)[C@@H]2CC(F)(F)CN2C(=O)CNC(=O)c2ccnc3ccccc23)cc1)C(=O)N1CCC[C@H]1B(O)O [Compound 5181]
IC50 (DPPIV): 0.86 µM | IC50 (DPP8): 7.3 µM | IC50 (DPP9): 2.6 µM | IC50 (DPPII): 24 µM | IC50 (FAP [1]): 0.11 µM | IC50 (PREP [2]): 0.015 µM

COc1cccc2c1C(=O)c1c(O)c3c(c(O)c1C2=O)C[C@@](O)(C(=O)CO)C[C@@H]3O[C@H]1C[C@H](NC(=O)[C@@H]2CCCN2C(=O)[C@@H](C)NC(=O)c2ccncc2)[C@H](O)[C@H](C)O1 [Compound 3099DOX]
Remaining Purity % ([3]; 22° C./72% RH, 1 month): 99.5% | Remaining Purity % ([3]; 22° C./72% RH, 1 week): 99.3% | Remaining Purity % ([3]; 22° C./72% RH, 2 month): 98.1% | Remaining Purity % ([3]; 22° C./72% RH, 3 month): 97.5% | Remaining Purity % ([3]; 22° C./72% RH, Day 0): 99.4% | Remaining Purity % ([3]; 40° C./75% RH, 1 month): 98.8% | Remaining Purity % ([3]; 40° C./75% RH, 1 week): 99.3% | Remaining Purity % ([3]; 40° C./75% RH, 2 month): 96.3% | Remaining Purity % ([3]; 40° C./75% RH, 3 month): 95.3% | Remaining Purity % ([3]; 40° C./75% RH, Day 0): 99.4% | Km (FAP [4]): 11.2 µM | kcat(Vmax/[E]) (FAP [4]): 0.44 s⁻¹ | Vmax (FAP [4]; released doxorubicin): 5.877e-09 M/s | activation with PREP (PREP [5]): essentially no activation with PREP | doxorubicin released by FAP (FAP [6]): released from 3099DOX by FAP | doxorubicin released by PREP (PREP [7]): neither PREP nor DPP IV | doxorubicin released in mouse muscle lysate [8]: released essentially no doxorubicin | time to reach maximum free doxorubicin (FAP [9]): approximately 8 h

COc1cccc2c1C(=O)c1c(O)c3c(c(O)c1C2=O)C[C@@](O)(C(=O)CO)C[C@@H]3O[C@H]1C[C@H](NC(=O)[C@@H]2CC(F)(F)CN2C(=O)CNC(=O)c2ccnc3ccccc23)[C@H](O)[C@H](C)O1 [Compound 5057DOX]
Km (FAP [10]; assay 6, [FAP] 4.00 × 10^−9M): 11.1 µM | Vmax (FAP [10]; assay 6, [FAP] 4.00 × 10^−9M): 5.19e-09 M/s | kcat(Vmax/[E]) (FAP [10]; assay 6, [FAP] 4.00 × 10^−9M): Kcat(Vmax/[E]) 1.30 sec^−1 | Kcat (FAP [10]; assay 7, [FAP] 1 nM): Kcat 0.98 sec^−1 | Km (FAP [10]; assay 7, [FAP] 1 nM): 4.85 µM | Vmax (FAP [10]; assay 7, [FAP] 1 nM, Dox standards, Daunorubicin internal standard): Vmax 9.80 × 10^−9M/sec | activation by FAP as compared to PREP (FAP [11]): selectively activated by FAP as compared to PREP

COc1cccc2c1C(=O)c1c(O)c3c(c(O)c1C2=O)C[C@@](O)(C(=O)CO)C[C@@H]3O[C@H]1C[C@H](NC(=O)[C@@H]2CCCN2C(=O)CNC(=O)OCc2ccccc2)[C@H](O)[C@H](C)O1 [z-GP-DOX, reference compound]
doxorubicin released by FAP (FAP [6]): A similar amount of doxorubicin was released from z-GP-DOX by FAP and PREP | doxorubicin released by PREP (PREP [7]): A similar amount of doxorubicin was released from z-GP-DOX by FAP and PREP | doxorubicin released by DPP IV [12]: essentially none by DPP IV | doxorubicin released in mouse muscle lysate [8]: released a large amount of doxorubicin
